From PMC12040169 (PLOS Biology, 2025)

Test: in vitro
Settings: human, hela cells, % viability

SMILES | viability at 28.5 h, 10 µM
CC(C)(C)c1ccc(NC(=O)N(Cc2ccccc2C(F)(F)F)CC2CCNCC2)cc1 [CBK049752] | 86.7%
O=C(NCc1ccccc1Cl)N(Cc1cccc(Cl)c1)CC1CCNCC1 [CBK049762] | 80.4%
Cc1noc(C)c1NC(=O)N(Cc1ccc2ccccc2c1)CC1CCNCC1 [CBK049774] | 110%
O=C(Nc1c(F)cccc1F)N(Cc1cc(F)cc(F)c1)CC1CCNCC1 [CBK049795] | 90.5%
CC(C)(C)c1ccccc1NC(=O)N(Cc1cc(F)cc(F)c1)CC1CCNCC1 [CBK049802] | 108%
Nc1nc(CC(=O)N2CCCCC2)cs1 [CBK049866] | 97.9%
Cc1c(Cl)cccc1S(=O)(=O)Nc1c(C(=O)O)[nH]c2ccccc12 [CBK049889] | 86.5%
COc1cc([C@@]23CC[C@@H](NC(=O)Nc4ccc(F)c(F)c4)C[C@@H]2N(C)CC3)ccc1O [CBK049958C] | 90.3%
COC(=O)c1sc2ncccc2c1NS(=O)(=O)c1cc(Br)c(Cl)s1 [CBK049973] | 112%
COC(=O)c1sc2ncccc2c1NS(=O)(=O)Cc1ccccc1[N+](=O)[O-] [CBK049974] | 102%
COc1ccc(Br)cc1S(=O)(=O)Nc1c(C(=O)O)sc2ncccc12 [CBK049978] | 88%
COc1ccc(S(=O)(=O)Nc2c(C(=O)O)sc3ncccc23)cc1OC [CBK049979] | 87.3%
Cc1noc(C)c1S(=O)(=O)Nc1c(C(=O)O)sc2ncccc12 [CBK049988] | 99.5%
CCN(CC)C(=O)c1sc2ncccc2c1NS(=O)(=O)Cc1ccccc1[N+](=O)[O-] [CBK050022] | 92.1%
Cc1ccc(S(=O)(=O)Nc2c(C(=O)N3CCN(C)CC3)sc3ncccc23)cc1[N+](=O)[O-] [CBK050025] | 91.2%
CN1CCN(C(=O)c2[nH]c3ccccc3c2NS(=O)(=O)c2cccc3cccnc23)CC1 [CBK050041] | 87.2%
CN1CCN(C(=O)c2[nH]c3ccccc3c2NS(=O)(=O)Cc2ccccc2)CC1 [CBK050046] | 93.9%
CN1CCN(C(=O)c2[nH]c3ccccc3c2NS(=O)(=O)c2cc(F)c(Br)cc2F)CC1 [CBK050051] | 90.5%
CN1CCN(C(=O)c2[nH]c3ccccc3c2NS(=O)(=O)Cc2ccccc2[N+](=O)[O-])CC1 [CBK050059] | 92.6%
Cc1ccc(S(=O)(=O)Nc2c(C(=O)N3CCN(C)CC3)[nH]c3ccccc23)cc1[N+](=O)[O-] [CBK050060] | 90.1%
O=C(c1[nH]c2ccccc2c1NS(=O)(=O)/C=C/c1ccccc1)N1CCOCC1 [CBK050068] | 93.1%

SMILES | viability at 28.5 h, 10 µM
O=C(c1[nH]c2ccccc2c1NS(=O)(=O)Cc1ccccc1[N+](=O)[O-])N1CCOCC1 [CBK050079] | 107%
O=C(Nc1ccc(F)cc1)c1[nH]c2ccccc2c1NS(=O)(=O)c1ccc(Cl)c(Cl)c1Cl [CBK050091] | 86.7%
COc1ccc(Br)cc1S(=O)(=O)Nc1c(C(=O)Nc2ccc(F)cc2)[nH]c2ccccc12 [CBK050095] | 88.2%
CCN(CC)C(=O)c1[nH]c2ccccc2c1NS(=O)(=O)c1ccc(F)cc1 [CBK050105] | 94.1%
CCN(CC)C(=O)c1[nH]c2ccccc2c1NS(=O)(=O)c1cc(Br)ccc1OC [CBK050113] | 92.6%
CC(C)(C)Cc1nnc(N)s1 [CBK050161] | 92.6%
CC(C)c1nnc(NS(=O)(=O)c2ccc(N)cc2)s1 [CBK050163] | 101%
Cc1ccc(S(N)(=O)=O)cc1NC(=O)c1ccc[nH]1 [CBK050200] | 91.2%
O=C(CCCc1ccccc1)Nc1c(F)cc(F)cc1OC1CCNCC1 [CBK050222T] | 96.1%
O=C(Nc1ccccc1OC1CCNCC1)c1ccccc1 [CBK050238T] | 115%
COc1cc(F)cc(OC2CCNCC2)c1NC(=O)C1(c2ccccc2)CCCCC1 [CBK050241T] | 107%
COc1cc(F)cc(OC2CCNCC2)c1NC(=O)Cc1c[nH]c2ccccc12 [CBK050246T] | 91%
COc1ccc(CCCC(=O)Nc2c(C)nn(C)c2N2CCNCC2)cc1OC [CBK050252T] | 93%
Cc1nn(C)c(N2CCNCC2)c1NC(=O)Cc1c[nH]c2ccccc12 [CBK050256T] | 97.1%
Cc1nn(C)c(N2CCNCC2)c1NC(=O)c1ccccc1 [CBK050257T] | 99%
O=C(Nc1c(F)cc(F)cc1OC1CCNCC1)c1cnccn1 [CBK050273T] | 100%
O=C(Nc1c(F)cc(F)cc1OC1CCNCC1)c1ccccn1 [CBK050274T] | 94.8%
O=C(Nc1c(F)cc(F)cc1OC1CCNCC1)c1cccnc1 [CBK050275T] | 100%
COc1ccc(C(=O)Nc2ccccc2OC2CCNCC2)cc1 [CBK050282T] | 85%
COc1ccc(C(=O)Nc2c(OC)cc(F)cc2OC2CCNCC2)cc1 [CBK050294T] | 97%
Cc1nn(C)c(N2CCNCC2)c1NC(=O)c1cccn1C [CBK050309T] | 94.8%

SMILES | viability at 28.5 h, 10 µM
O=C(/C=C/c1cccnc1)Nc1c(F)cc(F)cc1OC1CCNCC1 [CBK050324T] | 90.5%
Cn1cc(C(=O)Nc2c(F)cc(F)cc2OC2CCNCC2)c2ccccc21 [CBK050328T] | 89.1%
COc1cc(F)cc(OC2CCNCC2)c1NC(=O)c1coc2c1C(=O)CCC2 [CBK050351T] | 91.5%
COc1cc(F)cc(OC2CCNCC2)c1NC(=O)C1=CC(=O)CC(C)(C)O1 [CBK050352T] | 96.9%
COc1ccc(/C=C(\C)C(=O)Nc2c(OC)cc(F)cc2OC2CCNCC2)cc1OC [CBK050353T] | 98.6%
Cc1nn(C)c(N2CCNCC2)c1NC(=O)/C=C/c1cccnc1 [CBK050354T] | 95.4%
Cc1nn(C)c(N2CCNCC2)c1NC(=O)C1=CC(=O)CC(C)(C)O1 [CBK050362T] | 99.9%
O=c1c(N2CCNCC2)nccn1CCc1cccs1 [CBK050382T] | 89.3%
COCCn1c(-c2ccc(CN3CCCC3)cc2)cc2onc(C)c2c1=O [CBK050385C] | 104%
CCN(CC)C(=O)c1sccc1NS(=O)(=O)Cc1ccccc1[N+](=O)[O-] [CBK050396] | 97%
O=C(Nc1ccc(F)cc1)c1ccc(NS(=O)(=O)c2ccc(Br)cc2)cc1 [CBK050400] | 103%
CC(=O)Nc1ccc(S(=O)(=O)Nc2ccc(C(=O)Nc3ccc(F)cc3)cc2)cc1 [CBK050401] | 111%
CC(=O)Nc1ccc(S(=O)(=O)Nc2ccc(C(=O)N3CCN(C)CC3)cc2)cc1 [CBK050406] | 93.1%
CC(=O)Nc1ccc(S(=O)(=O)Nc2cccc(C(=O)O)c2)cc1 [CBK050407] | 98.7%
CN1CCN(C(=O)c2c(NS(=O)(=O)/C=C/c3ccccc3)sc3c2CCCC3)CC1 [CBK050417] | 94.3%
CN1CCN(C(=O)c2c(NS(=O)(=O)c3cc(F)c(Br)cc3F)sc3c2CCCC3)CC1 [CBK050419] | 90.5%
O=C(c1sccc1NS(=O)(=O)c1ccc(Oc2ccccc2)cc1)N1CCOCC1 [CBK050423] | 95.3%
CC(=O)Nc1ccc(S(=O)(=O)Nc2ccc(C(=O)O)cc2)cc1 [CBK050427] | 91.3%
Cc1ccc(S(N)(=O)=O)cc1C(=O)Nc1nncs1 [CBK050456] | 105%
O=S(=O)(Nc1nnn[nH]1)c1ccc(F)cc1 [CBK050473] | 104%
O=S(=O)(Nc1ccc(-c2csnn2)cc1)c1ccc(F)cc1 [CBK050482] | 92.1%

SMILES | viability at 28.5 h, 10 µM
Cc1nc(NS(=O)(=O)c2c(C)noc2C)sc1C(=O)Nc1ccc(F)cc1 [CBK050551] | 113%
CCOC(=O)c1ccccc1NS(=O)(=O)c1ccc(C(F)(F)F)cc1[N+](=O)[O-] [CBK050584] | 96.2%
CCOC(=O)c1ccccc1NS(=O)(=O)Cc1ccccc1[N+](=O)[O-] [CBK050594] | 92.3%
Cc1ccc(S(=O)(=O)NCC(=O)N2CCOCC2)cc1[N+](=O)[O-] [CBK050597] | 98.1%
CCN(CC)C(=O)c1sc2ncccc2c1NS(=O)(=O)c1ccc(C)c([N+](=O)[O-])c1 [CBK050618] | 112%
O=C(O)c1sc2ncccc2c1NS(=O)(=O)c1ccc(C(F)(F)F)cc1[N+](=O)[O-] [CBK050647] | 118%
O=C(O)c1sc2ncccc2c1NS(=O)(=O)c1cc(Cl)sc1Cl [CBK050650] | 78.2%
CCCc1ccc(S(=O)(=O)Nc2c(C(=O)OC)sc3ncccc23)cc1 [CBK050653] | 87.2%
CC(=O)Nc1cccc(-c2nccnc2NS(C)(=O)=O)c1 [CBK050740] | 108%
O=S(=O)(Nc1nccnc1-c1cccs1)C1CC1 [CBK050764] | 93.9%
CC(C)(C)S(=O)(=O)Nc1nccnc1-c1cccs1 [CBK050765] | 107%
O=S(=O)(Nc1nccnc1-c1cccs1)c1ccccc1Cl [CBK050775] | 94.9%
CN(C)c1ccc(-c2nccnc2NS(=O)(=O)Cc2cccc(Cl)c2)cc1 [CBK050787] | 102%
CN(C)c1ccc(-c2nccnc2NS(=O)(=O)c2ccccc2C(F)(F)F)cc1 [CBK050801] | 92.8%
COc1ccc(S(=O)(=O)Nc2nccnc2-c2ccc3[nH]ccc3c2)cc1 [CBK050805] | 91.6%
c1cnc(-c2nnn[nH]2)c(-c2ccc(COc3ccc4c(c3)OCO4)cc2)n1 [CBK050812] | 107%
c1ccc(-c2ccno2)c(OCc2ccc(-c3nccnc3-c3nnn[nH]3)cc2)c1 [CBK050817] | 93.6%
c1ccc2cc(OCc3ccc(-c4nccnc4-c4nnn[nH]4)cc3)ccc2c1 [CBK050818] | 93.9%
c1ccc2c(c1)ccn2Cc1ccc(-c2nccnc2-c2nnn[nH]2)cc1 [CBK050821] | 107%
CN(C)C(=O)c1nccnc1-c1ccc(COc2ccc3c(c2)OCO3)cc1 [CBK050829] | 91.1%
O=C(Nc1ccc2c(c1)OCO2)c1nccnc1-c1ccc(COc2ccccc2)cc1 [CBK050834] | 109%
